Patent US20220106301A1, “ACETAMIDO-PHENYLBENZAMIDE DERIVATIVES AND METHODS OF USING THE SAME” (Athenex, Inc., priority 2020, published 2022)

Molecular target: CYP3A4 (Homo sapiens, UniProt P08684)
Test: Determination of CYP3A4 inhibitory activity (human liver microsome, Luciferin-IPA)
Conditions: CYP3A4 IC50 (nM), 37° C. 11 minutes
Experimental: The standard final Compound concentrations were 37, 111, 333, 1000, and 3000 nM. 12.5 μL of the Compound dilutions were transferred to a white 96-well plate. […] 25 μL of the buffer was added to each well. The plates were incubated at 37° C. for 11 minutes. 50 μL of luciferin detection reagent (Promega V9002) was added and the plates were incubated at room temperature for 5 minutes. The plate was read with a luminometer.
The dose-response curve and IC50 were obtained by fitting data to nonlinear regression model using GraphPad Prism software (v6.0).

Chain of CYP3A4 (P08684 whole entry): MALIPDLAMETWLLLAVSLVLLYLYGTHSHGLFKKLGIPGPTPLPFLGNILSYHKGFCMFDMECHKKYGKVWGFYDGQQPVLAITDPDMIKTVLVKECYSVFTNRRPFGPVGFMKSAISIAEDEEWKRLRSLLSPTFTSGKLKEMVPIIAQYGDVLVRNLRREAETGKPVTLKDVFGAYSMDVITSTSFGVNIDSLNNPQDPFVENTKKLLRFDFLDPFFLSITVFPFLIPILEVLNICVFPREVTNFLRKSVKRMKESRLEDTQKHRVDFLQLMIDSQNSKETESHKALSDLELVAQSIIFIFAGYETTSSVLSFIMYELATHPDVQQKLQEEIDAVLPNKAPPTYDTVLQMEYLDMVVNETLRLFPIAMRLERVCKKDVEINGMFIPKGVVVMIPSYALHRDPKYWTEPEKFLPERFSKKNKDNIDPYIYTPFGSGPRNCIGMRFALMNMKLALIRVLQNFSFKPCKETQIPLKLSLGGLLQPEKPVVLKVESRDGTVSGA

SMILES | IC50 [nM]
COc1cc(NC(=O)c2cc(=O)c3cc(C)ccc3o2)c(C(=O)Nc2ccc(CCN(Cc3cccnc3)Cc3ccc4c(c3)c(C)nn4C)cc2)cc1OC [Compound 66] | 100 to 250
COc1cncc(CN(CCc2ccc(NC(=O)c3cc(OC)c(OC)cc3NC(=O)c3cc(=O)c4cc(C)ccc4o3)cc2)Cc2ccc3c(c2)c(C)nn3C)c1 [Compound 67] | 100 to 250
COCCOc1cncc(CN(CCc2ccc(NC(=O)c3cc(OC)c(OC)cc3NC(=O)c3cc(=O)c4cc(C)ccc4o3)cc2)Cc2ccc3c(c2)c(C)nn3C)c1 [Compound 68] | 100 to 250
COc1cncc(CN(CCc2ccc(NC(=O)c3cc(OC)c(OC)cc3NC(=O)c3cc(=O)c4ccccc4o3)cc2)Cc2ccc3c(c2)n(C)c(=O)n3C)c1 [Compound 69] | 100 to 250
COc1cc(NC(=O)c2cnc3ccccc3n2)c(C(=O)Nc2ccc(CCN(Cc3cncc(C)c3)Cc3ccc4c(cnn4C)c3)cc2)cc1OC [Compound 70] | 100 to 250
CCOc1cncc(CN(CCc2ccc(NC(=O)c3cc(OC)c(OC)cc3NC(=O)c3cc(=O)c4cc(C)ccc4o3)cc2)Cc2ccc3c(cnn3C)c2)c1 [Compound 73] | 250 to 500
CCOc1cncc(CN(CCc2ccc(NC(=O)c3cc(OC)c(OC)cc3NC(=O)c3cnc4ccccc4n3)cc2)Cc2ccc3c(cnn3C)c2)c1 [Compound 74] | 250 to 500
COc1cc(NC(=O)c2cnc3ccccc3n2)c(C(=O)Nc2ccc(CCN(Cc3cncc(C(C)C)c3)Cc3ccc4c(cnn4C)c3)cc2)cc1OC [Compound 75] | 250 to 500
COc1cc(NC(=O)c2cc(=O)c3cc(C)ccc3o2)c(C(=O)Nc2ccc(CCN(Cc3cncc(C(C)C)c3)Cc3ccc4c(cnn4C)c3)cc2)cc1OC [Compound 76] | > 1000
COc1cc(NC(=O)c2cc(=O)c3cc(C)ccc3o2)c(C(=O)Nc2ccc(CCN(Cc3cncc(C)c3)Cc3ccc4c(cnn4C)c3)cc2)cc1OC [Compound 77] | 250 to 500
COc1cc(NC(=O)c2cc(=O)c3ccccc3o2)c(C(=O)Nc2ccc(CCN3CCc4ccncc4C3)cc2)cc1OC [Compound 78] | 500 to 1000
COC(=O)c1ccc(C(=O)Nc2ccc(CCN(Cc3cncc(OC)c3)Cc3ccc4c(cnn4C)c3)cc2)c(NC(=O)c2cc(=O)c3ccccc3[nH]2)c1 [Compound 79] | 100 to 250
COc1cc2c(cc1OC)CN(CCc1ccc(NC(=O)c3ccc(C(=O)OCc4cccnc4)cc3NC(=O)c3cc(=O)c4ccccc4o3)cc1)CC2 [Compound 80] | 500 to 1000
COc1cc2c(cc1OC)CN(CCc1ccc(NC(=O)c3ccc(C(=O)OCc4ccncc4)cc3NC(=O)c3cc(=O)c4ccccc4o3)cc1)CC2 [Compound 81] | > 1000
COc1cc(NC(=O)c2cc(=O)c3ccccc3o2)c(C(=O)Nc2ccc(CCN3CCc4cnccc4C3)cc2)cc1OC [Compound 83] | < 100
CN(CCc1ccc(NC(=O)c2ccc(C(=O)OCc3cccnc3)cc2NC(=O)c2cc(=O)c3ccccc3o2)cc1)Cc1ccc2c(cnn2C)c1 [Compound 84] | > 1000
CN(CCc1ccc(NC(=O)c2ccc(C(=O)OCc3cncs3)cc2NC(=O)c2cc(=O)c3ccccc3o2)cc1)Cc1ccc2c(cnn2C)c1 [Compound 85] | 250 to 500
COc1cc(NC(=O)C2CC(=O)c3ccccc3O2)c(C(=O)Nc2ccc(CCN(C)Cc3ccc(-c4cccnc4)cc3)cc2)cc1OC (centres unmarked) [Compound 88] | 500 to 1000
COc1cc(NC(=O)C2CC(=O)c3ccccc3O2)c(C(=O)Nc2ccc(CCN(C)Cc3ccc(-c4ccncc4)cc3)cc2)cc1OC (centres unmarked) [Compound 89] | > 1000
CCOc1cc(C(=O)Nc2ccc(CCN(C)Cc3ccc4c(cnn4C)c3)cc2)c(NC(=O)c2cc(=O)c3ccccc3o2)cc1OC [Compound 111] | > 1000
CCN(CCc1ccc(NC(=O)c2cc(OC)c(OC)cc2NC(=O)c2cc(=O)c3ccccc3o2)cc1)Cc1cccc(OC[C@@H]2CO[C@@](Cn3ccnc3)(c3ccc(Cl)cc3Cl)O2)c1 [Compound 127] | < 100
COc1cc(NC(=O)c2cc(=O)c(O)co2)c(C(=O)Nc2ccc(CCN(C)Cc3ccc(-n4ccnc4)cc3)cc2)cc1OC [Compound 128] | 500 to 1000
COc1cc(NC(=O)c2cnc3c(O)cccc3c2)c(C(=O)Nc2ccc(CCN(C)Cc3ccc4c(cnn4C)c3)cc2)cc1OC [Compound 136] | > 1000
COc1cc(NC(=O)c2cc(=O)c3ccccc3o2)c(C(=O)Nc2ccc(CCN(Cc3ccc4c(cnn4C)c3)Cc3ccc4c(cnn4C)c3)cc2)cc1OC [Compound 137] | > 1000

Further lines, results first:

IC50 [nM] | SMILES
250 to 500 | COc1cc(NC(=O)c2cc(=O)c3ccccc3o2)c(C(=O)Nc2ccc(CCN(C)Cc3cncn3C)cc2)cc1OC [Compound 86]
100 to 250 | COc1cc(NC(=O)c2cc(=O)c3ccccc3o2)c(C(=O)Nc2ccc(CCN(C)Cc3ccc(-n4ccnc4)c(OC)c3)cc2)cc1OC [Compound 87]
250 to 500 | CCCN(CCc1ccc(NC(=O)c2cc(OC)c(OC)cc2NC(=O)c2cc(=O)c3ccccc3o2)cc1)Cc1cccc(-n2ccnc2)c1 [Compound 90]
100 to 250 | CCCN(CCc1ccc(NC(=O)c2cc(OC)c(OC)cc2NC(=O)c2cc(=O)c3ccccc3o2)cc1)Cc1ccc(-n2ccnc2)c(OC)c1 [Compound 91]
> 1000 | COc1cc(NC(=O)c2cc(=O)c3ccccc3o2)c(C(=O)Nc2ccc(CCN(C)Cc3ccc4c(c3)ncn4C)cc2)cc1OC [Compound 98]
250 to 500 | COc1cc(NC(=O)c2cc(=O)c3ccccc3o2)c(C(=O)Nc2ccc(CCN(Cc3cccc(-n4ccnc4)c3)CC(C)C)cc2)cc1OC [Compound 99]
100 to 250 | CCc1cn(-c2cccc(CN(C)CCc3ccc(NC(=O)c4cc(OC)c(OC)cc4NC(=O)c4cc(=O)c5ccccc5o4)cc3)c2)cn1 [Compound 105]
> 1000 | CCN(CCc1ccc(NC(=O)c2cc(OC)c(OC)cc2NC(=O)c2cc(=O)c3ccccc3o2)cc1)Cc1ccc2c(cnn2C)c1 [Compound 106]
100 to 250 | CCN(CCc1ccc(NC(=O)c2cc(OC)c(OC)cc2NC(=O)c2cc(=O)c3ccccc3o2)cc1)Cc1cccc(-n2cnc(C)c2)c1 [Compound 107]
250 to 500 | CCOc1cc(C(=O)Nc2ccc(CCN(C)Cc3ccc(-n4ccnc4)cc3)cc2)c(NC(=O)c2cc(=O)c3ccccc3o2)cc1OC [Compound 108]
> 1000 | CCN(CCc1ccc(NC(=O)c2cc(OC)c(OC)cc2NC(=O)c2cc(=O)c3ccccc3o2)cc1)Cc1ccc2c(c1)ncn2C [Compound 109]
500 to 1000 | CCOc1cc(C(=O)Nc2ccc(CCN(C)Cc3cccc(-n4cnc(C)c4)c3)cc2)c(NC(=O)c2cc(=O)c3ccccc3o2)cc1OC [Compound 110]
> 1000 | COc1cc(NC(=O)c2cc(=O)c3ccccc3o2)c(C(=O)Nc2ccc(CCN(C)Cc3ccc(-c4cscn4)cc3)cc2)cc1OC [Compound 112]
> 1000 | COc1cc(NC(=O)c2cc(=O)c3ccccc3o2)c(C(=O)Nc2ccc(CCN(C)Cc3ccc(-c4ncco4)cc3)cc2)cc1OC [Compound 114]
> 1000 | C#Cc1ccc(CN(C)CCc2ccc(NC(=O)c3cc(OC)c(OC)cc3NC(=O)c3cc(=O)c4ccccc4o3)cc2)cc1 [Compound 115]
> 1000 | C#Cc1cccc(CN(C)CCc2ccc(NC(=O)c3cc(OC)c(OC)cc3NC(=O)c3cc(=O)c4ccccc4o3)cc2)c1 [Compound 116]

IC50 [nM] | SMILES
250 to 500 | COc1cc(NC(=O)c2cc(=O)c3ccccc3o2)c(C(=O)Nc2ccc(CCN(C)Cc3cc(-n4cnc(C)c4)ccc3C)cc2)cc1OC [Compound 117]
250 to 500 | COc1cc(NC(=O)c2cc(=O)c3ccccc3o2)c(C(=O)Nc2ccc(CCN(C)Cc3ccc(-c4cncs4)cc3)cc2)cc1OC [Compound 118]
100 to 250 | COc1cc(NC(=O)c2cc(=O)c3ccccc3o2)c(C(=O)Nc2ccc(CCN(C)C(=O)CCc3cccnc3)cc2)cc1OC [Compound 119]
100 to 250 | COc1cc(NC(=O)c2cc(=O)c3ccccc3o2)c(C(=O)Nc2ccc(CCN(C)C(=O)CCc3ccncc3)cc2)cc1OC [Compound 120]
500 to 1000 | COc1cc(NC(=O)c2cc(=O)c3ccccc3o2)c(C(=O)Nc2ccc(CCN(C)C(=O)c3cccc(-n4ccnc4)c3)cc2)cc1OC [Compound 122]
< 100 | COc1cc(NC(=O)c2cc(=O)c3ccccc3o2)c(C(=O)Nc2ccc(CCN(C)C(=O)c3ccc(-n4ccnc4)cc3)cc2)cc1OC [Compound 123]
250 to 500 | COc1cc(NC(=O)c2cc(=O)c3ccccc3o2)c(C(=O)Nc2ccc(CCN(C)C(=O)c3cccc(-c4cccnc4)c3)cc2)cc1OC [Compound 124]
100 to 250 | COc1cc(NC(=O)c2cc(=O)c3ccccc3o2)c(C(=O)Nc2ccc(CCNCc3cccc(-n4ccnc4)c3)cc2)cc1OC [Compound 125]
500 to 1000 | COc1cc(NC(=O)c2cc(=O)c3ccccc3o2)c(C(=O)Nc2ccc(CCN(C)Cc3cnc(-n4ccnc4)nc3)cc2)cc1OC [Compound 126]
> 1000 | COc1cc(NC(=O)c2cc(=O)c(O)co2)c(C(=O)Nc2ccc(CCN(C)Cc3cccc(-n4ccnc4)c3)cc2)cc1OC [Compound 129]
< 100 | CCN(CCc1ccc(NC(=O)c2cc(OC)c(OC)cc2NC(=O)c2cc(=O)c3ccccc3o2)cc1)Cc1cccc(OCCn2ccnc2)c1 [Compound 130]
250 to 500 | CCN(CCc1ccc(NC(=O)c2cc(OC)c(OC)cc2NC(=O)c2cc(=O)c3ccccc3o2)cc1)Cc1ccc(OCCn2ccnc2)cc1 [Compound 131]
100 to 250 | CCN(CCc1ccc(NC(=O)c2cc(OC)c(OC)cc2NC(=O)c2cc(=O)c3ccccc3o2)cc1)Cc1ccc(OC)c(OCCn2ccnc2)c1 [Compound 132]
> 1000 | CCN(CCc1ccc(NC(=O)c2cc(OC)c(OC)cc2NC(=O)c2cc(=O)c3ccccc3o2)cc1)Cc1ccc(OC)c(O)c1 [Compound 133]
100 to 250 | CCN(CCc1ccc(NC(=O)c2cc(OC)c(OC)cc2NC(=O)c2cc(=O)c3ccccc3o2)cc1)Cc1ccc(OCCn2ccnc2)c(OC)c1 [Compound 134]
500 to 1000 | CCN(CCc1ccc(NC(=O)c2cc(OC)c(OC)cc2NC(=O)c2cc(=O)c3ccccc3o2)cc1)Cc1ccc(O)c(OC)c1 [Compound 135]
